What all share (format): physicochemical
Data set [1] can be described thus: Bakelite 180° peel strength test. As for the experimental part: Peel strength was measured by coating each sample onto a PET strip 25 mm wide and 100 mm long and applying the strip to a bakelite plate. Then, a roller having a load of 300 g is rolled back and forth thereon to secure the sample to the plate. The sample is subsequently peeled off at an angle of 180° at a rate of 300 mm/min. to determine peel force. Unless otherwise specified, peel force is measured herein by this test.
In this Example, PET strips were 20 mm in width. In the adhesive of Example 1, adipic acid diamine was dissolved in methanol+water (19:1 by volume) to a concentration of 0.5%.
The Nitto Adhesive was dissolved in ethyl acetate. The cross-linking agent (aluminium tri-acetylacetonate) was dissolved in acetylacetone+ethylacetate (1:1 by volume) solution to a concentration of 0.5%.
IPM was used as plasticiser for both. Heating was at 80° C. for 20 minutes in both cases.

Data set [2] can be described thus: Stability of drug-containing patches, adhesive of the invention. Particulars: 6 days at 60° C. Here is the method:
The mixed solutions were coated onto PET film and heated at 80° C. for 20 minutes. The content of drug was determined both immediately after preparation and after storage at 6 days at 60° C.

Data set [3] is described as follows: Saturation concentration of drugs in adhesives (crystallisation). More on the design: key: No crystallisation. Drug is dissolved; ¦: Crystallisation. The following applies: IPM 1.0 g. The text has this:
Oestradiol (a hydrophobic drug) and piroxicam (a hydrophilic drug), were investigated to establish their saturation concentrations in the two adhesives. As before, formulations 3 in each of Tables 9 and 10 were used.

The nature of data set [4]: Stability of drugs in Nitto adhesive. Here is the method:
The mixed solutions were coated onto PET film and heated at 80° C. for 20 minutes. The content of drug was determined immediately after preparation and after storage for 6 days at 60° C.

The mark [5] stands for this setting: Adhesive B from Example 11, diethylene triamine 20 mg as cross-linker.
Setting [6] is: allyl acetoacetate polymer of Example 9, 0.8 g of plasticiser, adipic acid diamine cross-linked.
The mark [7] stands for this setting: Nitto Adhesive 1.0 g, cross-linker 10 mg, drug 40.
Setting [8] is: Nitto Adhesive 1.0 g, cross-linker 10 mg, drug 50.
The mark [9] stands for this setting: Nitto Adhesive 1.0 g, cross-linker 10 mg, drug 75.

`CCCCCCCCCCCCCC(=O)OC(C)C` [IPM, isopropyl myristate]: the Adhesion strength in data set [1] (setting [5]) is given as 30 g/25 mm; in data set [1] (setting [6]), 80 g/20 mm.

In the case of `CCCCCCCC/C=C\CCCCCCCC(=O)OC` [MO, methyl oleate], the Adhesion strength in data set [1] (setting [5]) came out at 35 g/25 mm; in data set [1] (setting [6]), 95 g/20 mm.

As for `CN1C(C(=O)Nc2ccccn2)=C(O)c2ccccc2S1(=O)=O` [Piroxicam], in data set [2], the “deterioration of drug content after storage” value is on record as “no measurable deterioration”. Besides, the Crystallisation entry is “¦” in data set [3] (Adhesive of invention 1.0 g, cross-linker 3.0 mg, drug 50); “¦” in data set [3] (Adhesive of invention 1.0 g, cross-linker 3.0 mg, drug 75); “¦” in data set [3] (setting [7]); “¦” in data set [3] (setting [8]); “¦” in data set [3] (setting [9]). Further, in data set [4] (during the preparation process and after heating 60° C. for 6 days), the stability of drug entry is “stable”.

Consider `C[C@]12CC[C@@H]3c4ccc(O)cc4CC[C@H]3[C@@H]1CC[C@@H]2O` [oestradiol], for which the Crystallisation entry in data set [3] (Adhesive of invention 1.0 g, cross-linker 3.0 mg, drug 120 mg) is reported as “¦”; in data set [3] (Adhesive of invention 1.0 g, cross-linker 3.0 mg, drug 150 mg), “¦”; in data set [3] (setting [7]), “¦”; in data set [3] (setting [8]) it was “¦”; in data set [3] (setting [9]), “¦”.

With `C=C1CC[C@H](O)C/C1=C/C=C1\CCC[C@]2(C)[C@@H]([C@H](C)/C=C/[C@H](C)C(C)C)CC[C@@H]12` [vitamin D2], the “deterioration of drug content after storage” value in data set [2] is recorded as “no measurable deterioration”. Further, the “decomposed further during the 6 day storage period” value in data set [4] (6 days at 60° C.) was determined as 20%. Besides, the “decomposed during the preparation process” value in data set [4] (coated onto PET film, 80° C. for 20 minutes) was “ca. 30%”.

Source of the values: patent US6632906B1, “Adhesives” (Strakan Limited, priority 1999, dated 2003).
